Results as given in patent US7626043B2, “Antiproliferative activity of the leiodermatolide class of macrolides” (Florida Atlantic University Board of Trustees, priority 2006, dated 2009).

How the values were obtained:
Format in all cases: cell-based
[1] = system: A549 human lung adenocarcinoma cells; assay: Cell cycle analysis (propidium iodide flow cytometry), A549; conditions: A549, 24 hr
Procedure: (§1) A549 human lung adenocarcinoma cells were used as cell cycle targets to compare the effects on perturbation of the cell cycle of leiodermatolide to the known mitotic spindle inhibitor Paclitaxel. Cell cycle analyses were performed as follows: A549 human lung adenocarcinoma cells were incubated in tissue culture media (TCM=Roswell Park Memorial Institute (RPMI) medium 1640 supplemented with 100 U/ml penicillin, 100 […] 1-glutamine, 18 mM HEPES, 0.05 mg/ml gentamicin and 10% fetal bovine serum) at 37° C. in 5% CO2 in air in the presence or absence of varying concentrations of leiodermatolide or Paclitaxel for 24 hours.
(§2) Cells were harvested, fixed in ethanol and stained with 0.02 mg/ml of propidium iodide (P.I.) together with 0.1 mg/ml of RNAse A. This procedure permeabilizes cells and allows entry of P.I. to stain DNA (propidium iodide also stains double stranded RNA, so RNAse is included in the preparation to exclude this possibility). Stained preparations were analyzed on a BD Sciences Calibur Flow Cytometer with 488 nm excitation. Fluorescence measurements and resulting DNA histograms were collected from at least 3,000 P.I. stained cells at an emission wavelength of 690 nm. Raw histogram data was further analyzed using a cell cycle analysis program (Multicycle, Phoenix Flow Systems).

P388 murine leukemia = assay: MTT antiproliferative/cytotoxicity assay, P388; conditions: Mus musculus, 48-hr exposure
Procedure: (§3) Leiodermatolide was analyzed as to its effects on the proliferation of a panel of tumor cell lines including both cell lines. The cell lines tested include: A549 human lung adenocarcinoma, NCI-ADR-RES (Formerly MCF-7/ADR) human cancer, PANC-1 human pancreatic cancer, DLD-1 human colorectal carcinoma, and P388 murine leukemia cell lines. P388 cells were obtained from Dr. R. Camalier, National Cancer Institute Bethesda, Md., and A549, PANC-1, DLD-1 and NCI-ADR-RES cells were obtained from American Type Culture Collection, Rockville, Md. […]
(§4) A volume of 75 μl of warm growth media containing 5 mg/ml MTT is added to each well, cultures returned to the incubator, and left undisturbed for 3 hours. To spectrophotometrically quantitate formation of reduced formazan, plates are centrifuged (900×g, 5 minutes), culture fluids removed by aspiration, and 200 μl of acidified isopropanol (2 ml concentrated HCl/liter isopropanol) added per well. The absorbance of the resulting solutions is measured at 570 nm with a plate reader (BMG labtech NOVOStar). […] The two standard drug controls (indicated above) are included in each assay to monitor the drug sensitivity of each of the cell lines and IC50 values are determined for each drug-cell combination.

[2] = system: A549 human lung adenocarcinoma; assay: MTT antiproliferative/cytotoxicity assay, A549; conditions: 72-h exposure
Procedure: as §3, §4

[3] = system: DLD-1 human colorectal carcinoma; assay: MTT antiproliferative/cytotoxicity assay, DLD-1; conditions: 72-h exposure
Procedure: as §3, §4

[4] = system: PANC-1 human pancreatic carcinoma cells; assay: Cell cycle analysis (propidium iodide flow cytometry), PANC-1; conditions: PANC-1, 24 hr
Procedure: as §1, with “PANC-1 human pancreatic” for “A549 human lung”, “PANC-1 human pancreatic carcinoma cells were” for “A549 human lung adenocarcinoma cells were”, “of leiodermatolide and the known” for “of leiodermatolide to the known”, “as follows: PANC-1 […]” for “as follows: A549 human lung”, “0.05 mg/ml gentamicin, 100 μg/ml sodium pyruvate, 2.5 mg/ml glucose and 10%” for “0.05 mg/ml gentamicin and 10%”
as §2

[5] = system: PANC-1 human pancreatic cancer; assay: MTT antiproliferative/cytotoxicity assay, PANC-1; conditions: 72-h exposure
Procedure: as §3, §4

[6] = system: NCI-ADR-RES (Formerly MCF-7/ADR) human cancer; assay: MTT antiproliferative/cytotoxicity assay, NCI-ADR-RES; conditions: 72-h exposure, read-out: NCIADR-RES IC50
Procedure: as §3, §4

[7] = 10 nM, listed as leiodermatolide
[8] = 100 nM, listed as leiodermatolide

## CCC1OC(=O)CC(O)(C/C=C/C=C(\C)C2OC(=O)CC/C=C(\C)C(C)C(O)C(C)C(OC(N)=O)/C=C\C=C/C2C)C1C (centres unmarked) [Leiodermatolide]
[1]; 1 nM
  G1 (percentage of cells): 55.75%
  G2/M (percentage of cells): 13.40%
  S (percentage of cells): 30.85%
[1]; 10 nM
  G1 (percentage of cells): 2.97%
  G2/M (percentage of cells): 97.03%
  S (percentage of cells): 0.00%
[1]; [7]
  G1 (percentage of cells): 3%
  G2/M (percentage of cells): 97%
  S (percentage of cells): 0%
[1]; 100 nM
  G1 (percentage of cells): 1.70%
  G2/M (percentage of cells): 98.30%
  S (percentage of cells): 0.00%
[1]; [8]
  G1 (percentage of cells): 2%
  G2/M (percentage of cells): 98%
  S (percentage of cells): 0%
[1]; 1000 nM
  G1 (percentage of cells): 4.99%
  G2/M (percentage of cells): 95.01%
  S (percentage of cells): 0.00%
P388 murine leukemia
  IC50: 3.3 nM
[2]
  IC50: 3.3 nM
[3]
  IC50: 8.3 nM
[4]; 1 nM
  G1 (percentage of cells): 47.88%
  G2/M (percentage of cells): 28.93%
  S (percentage of cells): 23.18%
[4]; 10 nM
  G1 (percentage of cells): 12.04%
  G2/M (percentage of cells): 83.45%
  S (percentage of cells): 4.51%
[4]; [7]
  G1 (percentage of cells): 12%
  G2/M (percentage of cells): 83%
  S (percentage of cells): 4%
[4]; 100 nM
  G1 (percentage of cells): 16.55%
  G2/M (percentage of cells): 77.45%
  S (percentage of cells): 6.00%
[4]; [8]
  G1 (percentage of cells): 16%
  G2/M (percentage of cells): 77%
  S (percentage of cells): 6%
[4]; 1000 nM
  G1 (percentage of cells): 29.54%
  G2/M (percentage of cells): 63.92%
  S (percentage of cells): 6.53%
[5]
  IC50: 5 nM
[6]
  IC50: 233 nM

## CC(=O)O[C@H]1C(=O)[C@@]2(C)[C@H]([C@H](OC(=O)c3ccccc3)[C@]3(O)C[C@H](OC(=O)[C@H](O)[C@@H](NC(=O)c4ccccc4)c4ccccc4)C(C)=C1C3(C)C)[C@]1(OC(C)=O)CO[C@@H]1C[C@@H]2O [Paclitaxel, reference compound]
[1]; 100 nM
  G1 (percentage of cells): 2%
  G2/M (percentage of cells): 98%
  S (percentage of cells): 0%
[1]; 100 nM, listed as taxol
  G1 (percentage of cells): 2.18%
  G2/M (percentage of cells): 97.82%
  S (percentage of cells): 0.00%
[4]; 100 nM
  G1 (percentage of cells): 10%
  G2/M (percentage of cells): 88%
  S (percentage of cells): 2%
[4]; 100 nM, listed as paclitaxel
  G1 (percentage of cells): 9.76%
  G2/M (percentage of cells): 88.36%
  S (percentage of cells): 1.88%
